Reference: ChEMBL document CHEMBL4308841, “Synthesis, in vitro antiproliferative activity, and kinase inhibitory effects of pyrazole-containing diarylureas and diarylamides” (Eur J Med Chem, 2018)

Tests used:
PC-3 = experiment: Growth inhibition of human PC3 cells incubated for 48 hrs by sulforhodamine B assay; assay type: functional, cell-based; conditions: PC-3, 48 h
SNB-19 = experiment: Growth inhibition of human SNB19 cells incubated for 48 hrs by sulforhodamine B assay; assay type: functional, cell-based; conditions: SNB-19, 48 h
HL-60(TB) = experiment: Growth inhibition of human HL-60(TB) cells assessed as cell growth at 0.01 uM incubated for 48 hrs by sulforhodamine B assay relative to control; assay type: functional; conditions: HL-60, 48 h, read-out: Activity
NCI-H322M [1] = experiment: Growth inhibition of human NCI-H322M cells assessed as cell growth at 0.1 uM incubated for 48 hrs by sulforhodamine B assay relative to control; assay type: functional; conditions: read-out: Activity
MDA-MB-435 = experiment: Growth inhibition of human MDA-MB-435 cells assessed as cell growth at 0.01 uM incubated for 48 hrs by sulforhodamine B assay relative to control; assay type: functional; conditions: MDA-MB-435, 48 h, read-out: Activity
NCI-H322M [2] = experiment: Growth inhibition of human NCI-H322M cells assessed as cell growth at 0.01 uM incubated for 48 hrs by sulforhodamine B assay relative to control; assay type: functional; conditions: read-out: Activity
DU-145 = experiment: Growth inhibition of human DU145 cells assessed as cell growth at 0.01 uM incubated for 48 hrs by sulforhodamine B assay relative to control; assay type: functional; conditions: DU-145, 48 h, read-out: Activity
SK-MEL-5 = experiment: Growth inhibition of human SK-MEL-5 cells assessed as cell growth at 100 uM incubated for 48 hrs by sulforhodamine B assay relative to control; assay type: functional; conditions: SK-MEL-5, 48 h, read-out: Activity
NCI-H460 = experiment: Growth inhibition of human NCI-H460 cells assessed as cell growth at 0.01 uM incubated for 48 hrs by sulforhodamine B assay relative to control; assay type: functional; conditions: NCI-H460, 48 h, read-out: Activity
MDA-MB-468 = experiment: Growth inhibition of human MDA-MB-468 cells assessed as cell growth at 100 uM incubated for 48 hrs by sulforhodamine B assay relative to control; assay type: functional; conditions: MDA-MB-468, 48 h, read-out: Activity
SF-539 = experiment: Growth inhibition of human SF539 cells assessed as cell growth at 100 uM incubated for 48 hrs by sulforhodamine B assay relative to control; assay type: functional; conditions: SF-539, 48 h, read-out: Activity
M14 = experiment: Growth inhibition of human M14 cells assessed as cell growth at 0.1 uM incubated for 48 hrs by sulforhodamine B assay relative to control; assay type: functional; conditions: M14, 48 h, read-out: Activity
NCI/ADR-RES = experiment: Growth inhibition of human NCI/ADR-RES cells assessed as cell growth at 1 uM incubated for 48 hrs by sulforhodamine B assay relative to control; assay type: functional; conditions: read-out: Activity
MCF7 = experiment: Growth inhibition of human MCF7 cells assessed as cell growth at 1 uM incubated for 48 hrs by sulforhodamine B assay relative to control; assay type: functional; conditions: MCF7, 48 h, read-out: Activity
MDA-MB-231 [3] = experiment: Growth inhibition of human MDA-MB-231 cells assessed as cell growth at 100 uM incubated for 48 hrs by sulforhodamine B assay relative to control; assay type: functional; conditions: MDA-MB-231, 48 h, read-out: Activity
CCRF-CEM = experiment: Growth inhibition of human CCRF-CEM cells assessed as cell growth at 1 uM incubated for 48 hrs by sulforhodamine B assay relative to control; assay type: functional; conditions: read-out: Activity
KM12 [4] = experiment: Growth inhibition of human KM12 cells assessed as cell growth at 0.01 uM incubated for 48 hrs by sulforhodamine B assay relative to control; assay type: functional; conditions: KM12, 48 h, read-out: Activity
CAKI-1 = experiment: Growth inhibition of human Caki1 cells assessed as cell growth at 0.1 uM incubated for 48 hrs by sulforhodamine B assay relative to control; assay type: functional; conditions: CAKI-1, 48 h, read-out: Activity
HCC 2998 = experiment: Growth inhibition of human HCC2998 cells incubated for 48 hrs by sulforhodamine B assay; assay type: functional, cell-based; conditions: HCC 2998, 48 h
UACC-257 = experiment: Growth inhibition of human UACC257 cells incubated for 48 hrs by sulforhodamine B assay; assay type: functional, cell-based; conditions: UACC-257, 48 h
MOLT-4 = experiment: Growth inhibition of human MOLT4 cells incubated for 48 hrs by sulforhodamine B assay; assay type: functional, cell-based; conditions: MOLT-4, 48 h
KM12 [5] = experiment: Growth inhibition of human KM12 cells assessed as cell growth at 0.1 uM incubated for 48 hrs by sulforhodamine B assay relative to control; assay type: functional; conditions: KM12, 48 h, read-out: Activity
MDA-MB-231 [6] = experiment: Growth inhibition of human MDA-MB-231 cells incubated for 48 hrs by sulforhodamine B assay; assay type: functional, cell-based; conditions: MDA-MB-231, 48 h
NCI-H522 = experiment: Growth inhibition of human NCI-H522 cells assessed as cell growth at 0.1 uM incubated for 48 hrs by sulforhodamine B assay relative to control; assay type: functional; conditions: NCI-H522, 48 h, read-out: Activity
SNB-75 = experiment: Growth inhibition of human SNB75 cells assessed as cell growth at 0.01 uM incubated for 48 hrs by sulforhodamine B assay relative to control; assay type: functional; conditions: SNB-75, 48 h, read-out: Activity
SN12C = experiment: Growth inhibition of human SN12C cells assessed as cell growth at 1 uM incubated for 48 hrs by sulforhodamine B assay relative to control; assay type: functional; conditions: read-out: Activity
SK-MEL-2 = experiment: Growth inhibition of human SK-MEL-2 cells assessed as cell growth at 100 uM incubated for 48 hrs by sulforhodamine B assay relative to control; assay type: functional; conditions: SK-MEL-2, 48 h, read-out: Activity
NCI-H226 = experiment: Growth inhibition of human NCI-H226 cells assessed as cell growth at 100 uM incubated for 48 hrs by sulforhodamine B assay relative to control; assay type: functional; conditions: NCI-H226, 48 h, read-out: Activity
[7] = read-out: LC50 (the source's name)
[8] = read-out: pLC50 (the source's name) (converted)

`COc1cc(Cl)cc(-c2nn(-c3cccc(NC(=O)Nc4cccc(C(F)(F)F)c4)c3)cc2-c2ccncc2)c1` gave an IC50 (PC-3) of 0.42 µM, a GI50 (PC-3; read-out: GI50) of 0.417 µM and a CC50 (PC-3; [7]) of over 100 µM. The TGI (PC-3; read-out: TGI) was 32 µM, the GI50 (PC-3; read-out: pGI50 (converted)) was 0.417 µM and the CC50 (PC-3; [8]) was over 100 µM. It also gave a TGI (PC-3; read-out: pTGI (converted)) of 3.24 µM, a GI50 (SNB-19; read-out: GI50) of 2.77 µM and a CC50 (SNB-19; [7]) of over 100 µM. It also gave a TGI (SNB-19; read-out: TGI) of 35.9 µM, a GI50 (SNB-19; read-out: pGI50 (converted)) of 2.75 µM and a CC50 (SNB-19; [8]) of over 100 µM. It also gave a TGI (SNB-19; read-out: pTGI (converted)) of 35.5 µM, a growth at 0.01 µM (HL-60(TB)) of 96% and a growth at 0.1 µM (NCI-H322M [1]) of 94%. The growth at 0.01 µM (MDA-MB-435) was 100%, the growth at 0.01 µM (NCI-H322M [2]) was 99% and the growth at 0.01 µM (DU-145) was 101%. It also gave a growth at 100 µM (SK-MEL-5) of -99%, a growth at 0.01 µM (NCI-H460) of 102% and a growth at 100 µM (MDA-MB-468) of -34%. It also gave a growth at 100 µM (SF-539) of -72%, a growth at 0.1 µM (M14) of 93% and a growth at 1 µM (NCI/ADR-RES) of 65%. For the same compound, the growth at 1 µM (MCF7) was 62%, the growth at 100 µM (MDA-MB-231 [3]) was -43% and the growth at 1 µM (CCRF-CEM) was 56%. It also gave a growth at 0.01 µM (KM12 [4]) of 97%, a growth at 0.1 µM (CAKI-1) of 104% and a GI50 (HCC 2998; read-out: GI50) of 3.47 µM. It also gave a CC50 (HCC 2998; [7]) of 90.1 µM, a TGI (HCC 2998; read-out: TGI) of 14 µM and a GI50 (HCC 2998; read-out: pGI50 (converted)) of 3.47 µM. It also gave a CC50 (HCC 2998; [8]) of 89.1 µM, a TGI (HCC 2998; read-out: pTGI (converted)) of 14.1 µM and a GI50 (UACC-257; read-out: GI50) of 1.75 µM. The CC50 (UACC-257; [7]) was 21.5 µM, the TGI (UACC-257; read-out: TGI) was 45.5 µM and the GI50 (UACC-257; read-out: pGI50 (converted)) was 1.74 µM. The CC50 (UACC-257; [8]) was 21.4 µM, the TGI (UACC-257; read-out: pTGI (converted)) was 4.68 µM and the GI50 (MOLT-4; read-out: GI50) was 1.13 µM. The CC50 (MOLT-4; [7]) was over 100 µM, the TGI (MOLT-4; read-out: TGI) was 43.5 µM and the GI50 (MOLT-4; read-out: pGI50 (converted)) was 1.12 µM. It also gave a CC50 (MOLT-4; [8]) of over 100 µM, a TGI (MOLT-4; read-out: pTGI (converted)) of 4.37 µM and a growth at 0.1 µM (KM12 [5]) of 95%. For the same compound, the GI50 (MDA-MB-231 [6]; read-out: GI50) was 1.59 µM, the CC50 (MDA-MB-231 [6]; [7]) was over 100 µM and the TGI (MDA-MB-231 [6]; read-out: TGI) was 49.1 µM. The GI50 (MDA-MB-231 [6]; read-out: pGI50 (converted)) was 1.58 µM, the CC50 (MDA-MB-231 [6]; [8]) was over 100 µM and the TGI (MDA-MB-231 [6]; read-out: pTGI (converted)) was 4.9 µM. For the same compound, the growth at 0.1 µM (NCI-H522) was 53%, the growth at 0.01 µM (SNB-75) was 83% and the growth at 1 µM (SN12C) was 59%. It also gave a growth at 100 µM (SK-MEL-2) of -68% and a growth at 100 µM (NCI-H226) of -22%.
